Test [1] has as its target YAP-TEAD protein interaction (His-TEAD1 (209-426) protein, Bio-YAP peptide (60-100)) (Homo sapiens, UniProt P28347). The test is described as follows: YAP-TEAD protein interaction HTRF experiment. Particulars: His-TEAD1 (209-426) 10 nM, Bio-YAP peptide 50 nM, read-out: Activity of each compound in blocking YAP-TEAD protein interaction (grades of IC50 values). The test is classed as binding. The gist of the method:
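His-TEAD1 (209-426) at 10 nM final was preincubated 20 min at RT with compounds (10-point 3-fold dilutions, duplicates, 1% DMSO), then Bio-YAP peptide, 10 min. Anti-His-Eu cryptate/streptavidin-XL665 added for 1 h at RT; HTRF read at ex 320 nm, Em665/Em620 ratio ×10000, IC50 from % inhibition.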
Background: TR-FRET usually uses a lanthanide donor and a delayed reading to cut background.

Another test has as its system MSTO-211H cells. Kind of test: Cell proliferation inhibition experiment (CellTiter-Glo). It is filed as cell-based. The conditions noted are these: Homo sapiens, 96 hours, read-out: Inhibitory activity of each compound on the proliferation of MSTO-211H cells (grades of IC50 values). As for the experimental part: In this example, the intracellular ATP was quantitatively determined by the CellTiter-Glo luminescence cell viability detection kit to detect the number of living cells in the culture.
Step 1: MSTO-211H (ATCC, CRL-2081TM) or NCI-H2052 (ATCC, CRL-5915TM) cells were inoculated in a 96-well plate at a density of 1500 cells per well with a volume of 100 μL per well, and the cells were incubated overnight in a 37° C., 5% carbon dioxide incubator. The culture medium used was RPMI1640 medium (GIBCO-A10491-01)+10% FBS (GIBCO-10099141C)+1% penicillin/streptomycin (Pen/Strep) (GIBCO-15070-063).
Step 2: The cells were treated with the compounds to be tested. The compounds to be tested were 3-fold diluted, and a total of 9 concentration gradients were set up; a certain volume of DMSO or the compounds to be tested was added to each well, respectively, and 2 replicates were set up for each concentration, and the final concentration of DMSO was controlled to be no higher than 0.5%. The cells were incubated for 96 hours in a 37° C., 5% carbon dioxide incubator.
Step 3: Cell viability was detected in the control group and treatment group using CellTiter-Glo Luminescent Cell Viability Assay kit (Promega, G7570). 50 μL of CellTiter-Glo was added to each well, mixed well, and incubated at room temperature for 10 minutes. The signal was read using En Vision® Multilabel Plate Reader (Perkin Elmer).
The inhibition percentage (%) was calculated using the following formula: […]
Using Graphpad Prism software, the IC50 values of the compounds inhibiting the CTG signal of cell proliferation activity was calculated.

15 compounds from US20250177408A1, “INHIBITOR OF INTERACTION BETWEEN YAP/TAZ AND TEAD, PREPARATION THEREOF, PHARMACEUTICAL COMPOSITION THEREOF AND USE THEREOF” (ETERN BIOPHARMA (SHANGHAI) CO., LTD., priority 2022, published 2025) can be followed below.

Chain of YAP-TEAD protein interaction (His-TEAD1 (209-426) protein, Bio-YAP peptide (60-100)) (P28347 209-426): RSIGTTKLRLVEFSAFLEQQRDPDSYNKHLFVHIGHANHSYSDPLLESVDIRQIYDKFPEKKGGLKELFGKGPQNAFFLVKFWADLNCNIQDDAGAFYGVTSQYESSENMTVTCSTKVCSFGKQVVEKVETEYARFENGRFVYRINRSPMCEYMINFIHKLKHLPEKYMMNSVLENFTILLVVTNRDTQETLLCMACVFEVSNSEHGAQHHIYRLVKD

With `NC(=O)c1cc2c(c(F)c1-c1c(Cl)c(F)cc3c1C[C@](c1ccccc1)([C@@H]1CCCN1)O3)Oc1cn[nH]c(=O)c1O2` (atropisomer, axis not shown) [Compound 108, (S)-8-((S)-5-Chloro-6-fluoro-2-phenyl-2-((S)-pyrrolidin-2-yl)-2,3-dihydrobenzofuran-4-yl)-9-fluoro-4-oxo-3,4-dihydrobenzo[5,6][1,4]dioxo [2,3-d]pyridazine-7-carboxamide], the IC50 was less than 50 nM in test [1] and 500 to 5000 nM in the test on MSTO-211H cells.
Regarding `CCn1ncc2c(c1=O)Oc1c(cc(C(N)=O)c(-c3c(Cl)c(F)cc4c3C[C@](c3ccccc3)([C@@H]3CCCN3)O4)c1F)O2` (atropisomer, axis not shown) [Compound 109, (S)-8-((S)-5-Chloro-6-fluoro-2-phenyl-2-((S)-pyrrolidin-2-yl)-2,3-dihydrobenzofuran-4-yl)-2-ethyl-9-fluoro-1-oxo-1,2-dihydrobenzo[5,6][1,4]dioxo [2,3-d]pyridazine-7-carboxamide], the IC50 in test [1] was less than 50 nM; in the test with MSTO-211H cells, less than 200 nM.
As for `CCn1ncc2c(c1=O)Oc1cc(C(N)=O)c(-c3c(Cl)c(F)cc4c3C[C@](c3ccccc3)([C@@H]3CCCN3)O4)c(F)c1O2` (atropisomer, axis not shown) [Compound 110, (S)-8-((S)-5-Chloro-6-fluoro-2-phenyl-2-((S)-pyrrolidin-2-yl)-2,3-dihydrobenzofuran-4-yl)-3-ethyl-9-fluoro-4-oxo-3,4-dihydrobenzo[5,6][1,4]dioxo [2,3-d]pyridazine-7-carboxamide], the IC50 in test [1] was less than 50 nM; in the test on MSTO-211H cells, 200 to 500 nM.
With `NC(=O)c1cc2c(c(F)c1-c1c(Cl)c(F)cc3c1C[C@](c1ccccc1)([C@@H]1CCCN1)O3)Oc1c(N)ncnc1O2` (atropisomer, axis not shown) [Compound 114, (S)-4-Amino-7-((S)-5-chloro-6-fluoro-2-phenyl-2-((S)-pyrrolidin-2-yl)-2,3-dihydrobenzofuran-4-yl)-6-fluorobenzo[5,6][1,4]dioxo [2,3-d]pyrimidine-8-carboxamide], the IC50 in test [1] was less than 50 nM; with MSTO-211H cells, 500 to 5000 nM.
`Cn1cc2c(n1)COc1c-2cc(C(N)=O)c(-c2c(Cl)c(F)cc3c2C[C@](c2ccccc2)([C@@H]2CCC(=O)N2)O3)c1F` (atropisomer, axis not shown) [Compound 115, (S)-7-((S)-5-Chloro-6-fluoro-2-((S)-5-oxopyrrolidin-2-yl)-2-phenyl-2,3-dihydrobenzofuran-4-yl)-6-fluoro-2-methyl-2,4-dihydrochromeno[3,4-c]pyrazole-8-carboxamide]: the IC50 is less than 50 nM in test [1] and 500 to 5000 nM in the test with MSTO-211H cells.
For `[2H]c1c([2H])c([2H])c([C@]2([C@@H]3CCCN3)Cc3c(cc(F)c(Cl)c3-c3c(C(N)=O)cc4c(c3F)OCc3nn(C)cc3-4)O2)c([2H])c1[2H]` (atropisomer, axis not shown) [Compound 116, (S)-7-((S)-5-Chloro-6-fluoro-2-(phenyl-d5)-2-((S)-pyrrolidin-2-yl)-2,3-dihydrobenzofuran-4-yl)-6-fluoro-2-methyl-2,4-dihydrochromeno[3,4-c]pyrazole-8-carboxamide], the IC50 in test [1] is less than 50 nM; with MSTO-211H cells it was less than 200 nM.
Consider `NC(=O)c1cc2c(c(F)c1-c1c(Cl)c(F)cc3c1C[C@](c1ccccc1)([C@@H]1CCCN1)O3)Oc1c(cnn(CCF)c1=O)O2` (atropisomer, axis not shown) [Compound 118, (S)-8-((S)-5-Chloro-6-fluoro-2-phenyl-2-((S)-pyrrolidin-2-yl)-2,3-dihydrobenzofuran-4-yl)-9-fluoro-2-(2-fluoroethyl)-1-oxo-1,2-dihydrobenzo[5,6][1,4]dioxo[2,3-d]pyridazine-7-carboxamide], for which the IC50 was less than 50 nM in test [1] and less than 200 nM with MSTO-211H cells.
For `NC(=O)c1cc2c(c(F)c1-c1c(Cl)c(F)cc3c1C[C@](c1ccccc1)([C@@H]1CCCN1)O3)Oc1cnn(CCF)c(=O)c1O2` (atropisomer, axis not shown) [Compound 119, (S)-8-((S)-5-Chloro-6-fluoro-2-phenyl-2-((S)-pyrrolidin-2-yl)-2,3-dihydrobenzofuran-4-yl)-9-fluoro-3-(2-fluoroethyl)-4-oxo-3,4-dihydrobenzo[5,6][1,4]dioxo[2,3-d]pyridazine-7-carboxamide], the values for the IC50 (in test [1]; with MSTO-211H cells) were less than 50 nM and 200 to 500 nM, respectively.
Consider `NC(=O)c1cc2c(c(F)c1-c1c(Cl)c(F)cc3c1C[C@](c1ccccc1)([C@@H]1CCCN1)O3)Oc1c(cnn(CC(F)F)c1=O)O2` (atropisomer, axis not shown) [Compound 120, (S)-8-((S)-5-Chloro-6-fluoro-2-phenyl-2-((S)-pyrrolidin-2-yl)-2,3-dihydrobenzofuran-4-yl)-9-fluoro-2-(2,2-difluoroethyl)-1-oxo-1,2-dihydrobenzo[5,6][1,4]dioxo[2,3-d]pyridazine-7-carboxamide], for which the results for the IC50 (in test [1]; with MSTO-211H cells) were less than 50 nM and less than 200 nM, respectively.
`NC(=O)c1cc2c(c(F)c1-c1c(Cl)c(F)cc3c1C[C@](c1ccccc1)([C@@H]1CCCN1)O3)Oc1cnn(CC(F)F)c(=O)c1O2` (atropisomer, axis not shown) [Compound 121, (S)-8-((S)-5-Chloro-6-fluoro-2-phenyl-2-((S)-pyrrolidin-2-yl)-2,3-dihydrobenzofuran-4-yl)-9-fluoro-3-(2,2-difluoroethyl)-4-oxo-3,4-dihydrobenzo[5,6][1,4]dioxo[2,3-d]pyridazine-7-carboxamide]: the IC50 is less than 50 nM in test [1] and 200 to 500 nM with MSTO-211H cells.
For the compound `Cn1nc2c(cc1=O)Oc1cc(C(N)=O)c(-c3c(Cl)c(F)cc4c3C[C@](c3ccccc3)([C@@H]3CCCN3)O4)c(F)c1O2` (atropisomer, axis not shown) [Compound 122, (S)-8-((S)-5-Chloro-6-fluoro-2-phenyl-2-((S)-pyrrolidin-2-yl)-2,3-dihydrobenzofuran-4-yl)-9-fluoro-2-methyl-3-oxo-2,3-trihydrobenzo [5,6][1,4]dioxo [2,3-c]pyridazine-7-carboxamide], the figures for the IC50 (in test [1]; in the test on MSTO-211H cells) were less than 50 nM and less than 200 nM, respectively.
Consider `Cn1nc2c(cc1=O)Oc1c(cc(C(N)=O)c(-c3c(Cl)c(F)cc4c3C[C@](c3ccccc3)([C@@H]3CCCN3)O4)c1F)O2` (atropisomer, axis not shown) [Compound 123, (S)-7-((S)-5-Chloro-6-fluoro-2-phenyl-2-((S)-pyrrolidin-2-yl)-2,3-dihydrobenzofuran-4-yl)-6-fluoro-1-methyl-3-oxo-2,3-trihydrobenzo [5,6][1,4]dioxo [2,3-c]pyridazine-8-carboxamide], for which the IC50 in test [1] was less than 50 nM; in the test on MSTO-211H cells, 200 to 500 nM.
Consider `CNC(=O)c1cc2c(c(F)c1-c1c(Cl)c(F)cc3c1C[C@](c1ccccc1)([C@@H]1CCCN1)O3)Oc1cnn(C)c(=O)c1O2` (atropisomer, axis not shown) [Compound 125, (S)-8-((S)-5-Chloro-6-fluoro-2-phenyl-2-((S)-pyrrolidin-2-yl)-2,3-dihydrobenzofuran-4-yl)-9-fluoro-N,3-dimethyl-4-oxo-3,4-dihydroxybenzo[5,6][1,4]dioxo[2,3-d]pyridazine-7-carboxamide], for which the IC50 in test [1] was less than 50 nM; in the test with MSTO-211H cells, less than 200 nM.
As for `NC(=O)c1cc2c(c(F)c1-c1c(Cl)c(F)cc3c1C[C@](c1ccccc1)([C@@H]1CCCN1)O3)Oc1nn(C3CC3)c(=O)cc1O2` (atropisomer, axis not shown) [Compound 128, (S)-8-((S)-5-Chloro-6-fluoro-2-phenyl-2-((S)-pyrrolidin-2-yl)-2,3-dihydrobenzofuran-4-yl)-2-cyclopropyl-9-fluoro-3-oxo-2,3-hydrobenzo[5,6][1,4]dioxo [2,3-c]pyridazine-7-carboxamide], the IC50 is less than 50 nM in test [1] and less than 200 nM in the test on MSTO-211H cells.
Turning to `NC(=O)c1cc2c(c(F)c1-c1c(Cl)c(F)cc3c1C[C@](c1ccccc1)([C@@H]1CCCN1)O3)Oc1cc(=O)n(C3CC3)nc1O2` (atropisomer, axis not shown) [Compound 129, (S)-8-((S)-5-Chloro-6-fluoro-2-phenyl-2-((S)-pyrrolidin-2-yl)-2,3-dihydrobenzofuran-4-yl)-2-cyclopropyl-9-fluoro-3-oxo-2,3-hydrobenzo[5,6][1,4]dioxo [2,3-c]pyridazine-7-carboxamide], the IC50 in test [1] was less than 50 nM; in the test on MSTO-211H cells it was 200 to 500 nM.
